Test results: patent US20240415793A1, “Neuroprotective composition comprising pyruvate and citrate” (N.V. Nutricia, priority 2022, published 2024)

How the values were obtained:
neuroglial cell cultures = test: Seahorse assay (OCR/ECAR), 24-hour incubation with citrate under resting conditions; format: cell-based, rat; settings: 0.8 mM Mg2+, vs control medium; for increase in basal glycolytic rates: FIG. 5A; for increase in OM-induced increase in glycolytic rates: FIG. 5B; for increase in FCCP-induced maximal glycolytic capacity: FIG. 5C
Method: The oxygen consumption rates (OCRs) and extracellular acidification rates (ECARs) of cells seeded in 96-well plates were monitored in real time at 37° C. in unbuffered Hanks Balanced Salt Solution (HBSS). The OCRs represent foremost mitochondrial respiration, and to a minor extent non-mitochondrial respiration. The ECARs relate foremost to the acidification of the medium with lactate produced through glycolysis and secreted by the cells into the medium (Table 1).
During the Seahorse run, both the OCRs and ECARs were measured simultaneously at baseline and following the injection of compounds by the Seahorse instrument (Table 1). HBSS was supplemented with glucose from the start and no glucose was injected through the Seahorse instruments. Measurements were repeated three times at baseline and three times after each compound injection.
After the initial baseline measurement, oligomycin (OM) was injected. OM blocks mitochondrial ATP synthase (complex V) and therefore decreases mitochondrial respiration. The OCRs after OM injection are due to the mitochondrial proton leak. They enable to determine whether the test nutrients impact the proton leak. The difference in OCRs at baseline and after OM injection is the amount of oxygen used for mitochondrial ATP synthesis at baseline. From this difference in OCR, the mitochondrial ATP production rates are calculated.
After OM, uncoupling agent carbonyl cyanide-p- trifluoromethoxyphenyl-hydrazon [FCCP] was injected which collapses the proton gradient across the inner mitochondrial membrane established during respiration and required for ATP synthesis. The cells attempt to restore the proton gradient following FCCP injection by maximizing respiration. The OCRs measured after FCCP injection therefore represent the maximal respiratory capacity of the mitochondria in the sample and enable to determine whether test nutrients impact the maximal respiratory capacity of the mitochondria.
Finally, Antimycin A, a complex III inhibitor, and Rotenone, a complex I inhibitor, were co-injected, both blocking the respiratory chain at different sites to entirely shut down mitochondrial respiration and determine the non-mitochondrial respiration. The latter is necessary to correct all OCRs and obtain the mitochondrial OCRs.
The ECARs were measured simultaneously at baseline and after OM and FCCP injection. The glycolytic ATP production was calculated from the baseline ECARs. The subsequent injection of OM pushed the cells to maximize their glycolytic ATP production to compensate for the loss in mitochondrial ATP production inflicted by OM. The further addition of FCCP drove mitochondrial respiration to a maximum and this eventually led to a further increase in glycolytic rates providing pyruvate into the TCA cycle to sustain maximal respiration. Therefore, the ECARs after FCCP injection were used to determine the maximum glycolytic capacity of the cells.
Further, the effects of a 24-hour incubation with citrate on glycolysis, mitochondrial respiration and total (glycolytic and mitochondrial) energy (ATP) production under resting conditions was assessed. Neuroglial cell cultures were grown in Neurobasal medium (NBM) supplemented with B27, high (25 mM) glucose, and high (0.8 mM) Mg2+ from DIV0 until DIV14. They were switched to NBM supplemented with B27, low (5 mM) glucose, and high (0.8 mM) Mg^2+ from DIV14 until DIV16. On DIV16, the medium was exchanged for DMEM (which is, in contrast to HBSS, not a nutrient-deprived medium) containing low (5 mM) glucose, high (0.8 mM) Mg^2+ and 500 μM or 1 mM citrate. On DIV17, one hour prior to the Seahorse run, the medium was replaced with unbuffered DMEM containing low (5 mM) glucose, high (0.8 mM) Mg^2+ and 500 μM or 1 mM citrate. The cells were left in this medium until the end of the run. Five repeats per condition were done.

[1] = test system: primary mouse neuroglial cultures; test: Cell death by high content imaging (Hoechst/NeuN nuclear shrinkage) after chronic hyperstimulation; format: cell-based; settings: 1 mM
Method: To determine whether pyruvate and citrate protect neurons and glial cells from cell death induced by chronic electrical hyperstimulation. To assess protection from cell death induced by repeated hyperstimulation, primary mouse neuroglial cultures were assayed. Neuroglial cell cultures were prepared and grown until DIV14 as described above. From DIV14 until DIV17 they were switched to NBM containing B27, low (2.5 mM) glucose, and low (0.1 mM) Mg^2+ or high (0.8 mM) Mg^2+. Incubation in low (0.1 mM) Mg^2+ medium increases the neuronal firing rates, thus creating a state of chronic hyperstimulation. The test nutrients (pyruvate or citrate) were supplied through the medium from DIV14 until DIV17. On DIV17, the cell nuclei were stained with the Hoechst dye and co-immunolabelled for NeuN, a protein found only in the nuclei of neurons. The neuronal and non-neuronal cell nuclei were scored for nuclear shrinkage, a hallmark of cell death, by high content imaging.
To assess cell death by high content imaging the cells were fixed on DIV17 in 1% formaldehyde, permeabilized with ethanol and incubated with a rabbit polyclonal IgG antibody against NeuN, a neuron-specific protein localized to the nucleus, followed by detection with a secondary anti-rabbit IgG antibody linked to a red fluorescent label. Neuronal and non-neuronal cell nuclei were then counterstained with the blue fluorescent nuclear dye Hoechst. The nuclei were counted by a high content imager based on signal intensity and size. A cut-off value was applied to exclude objects of low signal intensity considered noise. Then, cut-off values were applied to exclude objects with an area below 30 μM^2 considered cell debris and objects with an area above 300 μM^2 considered cell clumps. A boundary of 60 μM^2 was set to distinguish between nuclei from alive and dead cells. Objects areas of 30 μM^2 to 60 μM^2 were counted as nuclei from dead cells, while object areas of 60 μM^2 to 300 μM^2 were counted as nuclei from alive cells. The counting was done at 20-fold magnification on a fixed number of optical fields per well. The counts of nuclei from dead neurons or dead cells were related to the number of alive neurons or alive cells, respectively, in the same well.
Neuroglial cell cultures were supplemented with 1 mM citrate from DIV14 until DIV17. On DIV17, total cell death and neuron-specific cell death were quantified by high content imaging. The total number of Hoechst positive objects or NeuN positive objects prior to applying cut-off values for the signal intensity and the area size was equal between the different groups (FIG. 10 A, D).

[2] = test system: primary rat neuronal-glial cell cultures; test: Seahorse assay (OCR/ECAR), acute 1 h nutrient pre-incubation, resting or seizure-like conditions; format: cell-based; settings: for increase in OM-induced glycolytic rates (tended): FIG. 3D
[3] = test system: Phosphofructokinase 1 (PFK1); settings: tissue- and brain-specific isoforms; cited from earlier work

For `O=C(O)CC(O)(CC(=O)O)C(=O)O` [citrate], the “increase in basal mitochondrial respiration” value (neuroglial cell cultures; 500 μM and 1 mM citrate, FIG. 4B) was about 60%, the “increase in FCCP-induced maximal mitochondrial respiratory capacity” value (neuroglial cell cultures; 500 μM and 1 mM citrate, FIG. 4C) was 60-70% and the “increase in basal mitochondrial and glycolytic ATP production” value (neuroglial cell cultures; 500 μM and 1 mM citrate, DMEM 5 mM glucose, FIG. 4A) was about 45%. For the same molecule, the “increase in basal glycolytic rates” value (neuroglial cell cultures; 500 μM citrate) was about 45%, the “increase in OM-induced increase in glycolytic rates” value (neuroglial cell cultures; 500 μM citrate) was about 70% and the “increase in FCCP-induced maximal glycolytic capacity” value (neuroglial cell cultures; 500 μM citrate) was about 75%. The “increase in basal glycolytic rates” value (neuroglial cell cultures; 1 mM citrate) was about 20%, the “increase in OM-induced increase in glycolytic rates” value (neuroglial cell cultures; 1 mM citrate) was about 30% and the “increase in FCCP-induced maximal glycolytic capacity” value (neuroglial cell cultures; 1 mM citrate) was about 50%. For the same molecule, the “increase in dead cell counts from high Mg2+ to low Mg2+ medium” value ([1]; DIV14-DIV17, chronic hyperstimulation, FIG. 10C/11C) was about 4%, the dead cell counts ([1]; DIV14-DIV17, high (0.8 mM) Mg2+ medium, FIG. 10C/11C) was about 19% and the “dead neuron count (neuron death)” value ([1]; DIV14-DIV17, high Mg2+ medium, FIG. 10F/11F) was −1.5%. For the same molecule, the dead cell counts ([1]; DIV14-DIV17, low (0.1 mM) Mg2+ medium, FIG. 10C/11C) was about 23%, the “dead neuron count (neuron death)” value ([1]; DIV14-DIV17, low Mg2+ medium, FIG. 10F/11F) was about 1.4% and the “effect on alive cell count” value ([1]; DIV14-DIV17, FIG. 10B/11B) was “not impacting”. The “effect on rise in neuron death induced by chronic hyperstimulation” value ([1]; DIV14-DIV17, FIG. 10F/11F) was “entirely blocked”, the “increase in OM-induced glycolytic rates (tended)” value ([2]; 1 mM citrate, 0.1 mM Mg2+ medium) was about 15% and the “increase in total (mitochondrial and glycolytic) ATP production” value ([2]; 1 mM citrate, 0.8 mM Mg2+ control medium, FIG. 3A) was about 75%. The “increase in basal mitochondrial respiration” value ([2]; 1 mM citrate, 0.8 mM Mg2+ control medium, FIG. 3B) was about 100%, the “increase in FCCP-driven maximal glycolytic capacity (tended)” value ([2]; 1 mM citrate, 0.8 mM Mg2+ control medium, FIG. 3E) was about 35% and the “increase in basal glycolytic rates” value ([2]; 1 mM citrate, 0.8 mM Mg2+ medium, FIG. 3C) was about 70%. The “increase in OM-induced glycolytic rates (tended)” value ([2]; 1 mM citrate, 0.8 mM Mg2+ medium) was about 60%, the “increase in mitochondrial oxygen consumption rates (OCR) at baseline” value ([2]; resting, high Mg2+ medium (DMEM, 5 mM glucose), dose-dependent, vs control medium without citrate, FIG. 1E) was at most 25% and the “increase in OM-induced proton leak” value ([2]; resting, high Mg2+ medium (DMEM, 5 mM glucose), vs control medium without citrate, FIG. 1F) was at most 10%. For the same molecule, the “effect on FCCP-driven maximal respiratory capacity” value ([2]; resting, high Mg2+ medium (DMEM, 5 mM glucose), vs control medium without citrate, FIG. 1G) was “not significantly impacting”, the “increase in OM- and FCCP-induced maximal glycolytic capacity” value ([2]; resting, high Mg2+ medium, 0.25 mM citrate, FIG. 2E, F) was 10-15% and the “increase in basal glycolytic rates and lactate secretion” value ([2]; resting, high Mg2+ medium, acute, dose-dependent, FIG. 2D) was about 25%. The “concentrations at which PFK1 isoforms are inhibited” value [3] was “above 100 μM”.
